Converted amounts (≈) assume the structure as drawn.
What was measured:
[1] = target: Serine/threonine-protein kinase mTOR (Homo sapiens, UniProt P42345); test: Displacement of Alexa Fluor labelled Tracer-314 from human N-terminal GST-tagged mTOR incubated for 1 hr by TR-FRET assay
[2] = Brain to blood ratio in OF1 mouse at 1 mg/kg, iv measured at 1 hr post dose by LC-MS/MS analysis; assay type: ADME, organism-based; settings: brain and blood, read-out: BBR
[3] = Volume of distribution at steady state in Sprague-Dawley rat at 3 mg/kg, po or iv measured upto 24 hrs by LC-MS/MS analysis; assay type: ADME, organism-based; settings: in vivo
[4] = AUC in Sprague-Dawley rat at 1 mg/kg, iv measured for 0.083 to 48 hrs by LC-MS/MS analysis; assay type: ADME, organism-based; parameters: time upper 48 hrs, dose 1 mg/kg, time lower 0.083 hrs, route iv; settings: in vivo
[5] = target: T1, Phosphatidylinositol 4,5-bisphosphate 3-kinase catalytic subunit delta isoform (Homo sapiens, UniProt O00329); test: Inhibition of PI3Kdelta (unknown origin) using phosphatidylinositol as substrate measured for 15 to 60 mins by TR-FRET based Adapta universal kinase assay
T1 sequence (O00329 whole entry): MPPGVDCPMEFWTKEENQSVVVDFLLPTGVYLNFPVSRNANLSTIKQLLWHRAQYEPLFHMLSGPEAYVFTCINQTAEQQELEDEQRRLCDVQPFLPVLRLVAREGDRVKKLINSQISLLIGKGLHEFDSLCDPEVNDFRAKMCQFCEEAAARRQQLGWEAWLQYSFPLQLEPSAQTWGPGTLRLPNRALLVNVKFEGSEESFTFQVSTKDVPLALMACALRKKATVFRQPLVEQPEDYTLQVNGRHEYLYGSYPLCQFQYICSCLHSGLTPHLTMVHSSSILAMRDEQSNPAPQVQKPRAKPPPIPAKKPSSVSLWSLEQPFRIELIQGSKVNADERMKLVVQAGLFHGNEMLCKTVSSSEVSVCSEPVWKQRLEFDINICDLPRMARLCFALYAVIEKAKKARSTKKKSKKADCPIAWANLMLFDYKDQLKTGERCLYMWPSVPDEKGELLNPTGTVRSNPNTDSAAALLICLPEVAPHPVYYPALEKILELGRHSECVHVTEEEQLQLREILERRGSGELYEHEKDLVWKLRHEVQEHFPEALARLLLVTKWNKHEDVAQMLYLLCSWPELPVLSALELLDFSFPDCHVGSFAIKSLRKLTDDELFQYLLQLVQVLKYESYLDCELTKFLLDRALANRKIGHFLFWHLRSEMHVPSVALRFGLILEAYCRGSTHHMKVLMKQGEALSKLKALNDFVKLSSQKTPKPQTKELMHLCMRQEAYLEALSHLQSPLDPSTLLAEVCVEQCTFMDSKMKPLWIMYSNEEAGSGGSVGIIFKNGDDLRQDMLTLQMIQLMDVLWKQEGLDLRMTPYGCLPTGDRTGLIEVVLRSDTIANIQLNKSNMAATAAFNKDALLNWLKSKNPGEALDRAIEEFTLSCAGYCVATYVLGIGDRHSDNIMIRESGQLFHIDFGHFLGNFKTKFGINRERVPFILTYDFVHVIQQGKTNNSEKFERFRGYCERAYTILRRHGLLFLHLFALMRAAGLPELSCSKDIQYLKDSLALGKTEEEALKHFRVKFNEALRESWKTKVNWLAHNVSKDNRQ

[6] = target: Phosphatidylinositol 4,5-bisphosphate 3-kinase catalytic subunit gamma isoform (Homo sapiens, UniProt P48736); test: Inhibition of PI3Kgamma (unknown origin) using phosphatidylinositol 4,5-bisphosphate as substrate measured for 15 to 60 mins by TR-FRET based Adapta universal kinase assay
Phosphatidylinositol 4,5-bisphosphate 3-kinase catalytic subunit gamma isoform, sequence (P48736 whole entry, canonical isoform): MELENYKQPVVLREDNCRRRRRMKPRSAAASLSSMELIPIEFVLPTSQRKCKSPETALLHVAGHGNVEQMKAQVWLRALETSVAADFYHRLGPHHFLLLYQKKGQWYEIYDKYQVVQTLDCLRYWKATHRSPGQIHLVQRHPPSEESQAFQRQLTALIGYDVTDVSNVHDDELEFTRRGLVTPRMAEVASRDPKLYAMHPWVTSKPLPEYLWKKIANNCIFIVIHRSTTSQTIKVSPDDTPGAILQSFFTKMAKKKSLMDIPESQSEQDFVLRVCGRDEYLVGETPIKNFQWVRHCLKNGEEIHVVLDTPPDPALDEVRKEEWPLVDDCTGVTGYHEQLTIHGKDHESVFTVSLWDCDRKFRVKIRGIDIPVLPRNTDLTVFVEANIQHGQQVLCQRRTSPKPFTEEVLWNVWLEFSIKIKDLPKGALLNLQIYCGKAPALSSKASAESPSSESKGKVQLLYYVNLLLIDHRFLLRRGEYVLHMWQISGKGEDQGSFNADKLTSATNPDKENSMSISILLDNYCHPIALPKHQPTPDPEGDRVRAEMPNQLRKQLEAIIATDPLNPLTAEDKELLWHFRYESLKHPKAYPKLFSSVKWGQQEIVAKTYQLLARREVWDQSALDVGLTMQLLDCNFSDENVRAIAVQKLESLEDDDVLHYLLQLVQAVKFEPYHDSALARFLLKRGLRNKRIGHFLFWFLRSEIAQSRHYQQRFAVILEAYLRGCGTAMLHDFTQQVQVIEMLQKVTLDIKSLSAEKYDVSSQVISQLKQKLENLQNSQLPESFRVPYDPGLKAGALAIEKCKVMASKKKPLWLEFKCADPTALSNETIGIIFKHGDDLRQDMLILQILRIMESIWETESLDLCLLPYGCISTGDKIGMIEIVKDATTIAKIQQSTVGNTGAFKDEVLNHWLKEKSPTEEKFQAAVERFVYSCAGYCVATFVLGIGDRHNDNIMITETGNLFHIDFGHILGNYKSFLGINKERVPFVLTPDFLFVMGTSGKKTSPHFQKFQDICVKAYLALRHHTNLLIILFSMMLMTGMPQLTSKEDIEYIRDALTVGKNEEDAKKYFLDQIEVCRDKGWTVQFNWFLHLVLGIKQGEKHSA

[7] = Inhibition of wild type PI3K in human CAL-85-1 cells assessed as reduction in phosphorylation of AKT at Ser473 residue by Western blot analysis; assay type: cell-based
[8] = Inhibition of PI3K PTEN mutant in human MDA-MB-468 cells assessed as reduction in phosphorylation of AKT at Ser473 residue by Western blot analysis; assay type: cell-based
[9] = Volume of distribution at steady state in OF1 mouse at 10 mg/kg,po or 3 mg/kg,iv measured upto 24 hrs by LC-MS/MS analysis; assay type: ADME, organism-based; settings: in vivo
[10] = Volume of distribution at steady state in beagle dog at 0.3 mg/kg,po or 0.1 mg/kg,iv measured upto 24 hrs by LC-MS/MS analysis; assay type: ADME, organism-based, Canis lupus familiaris; settings: in vivo
[11] = Dose normalized AUC in Sprague-Dawley rat at 30 mg/kg, po measured upto 24 hrs by LC-MS/MS analysis; assay type: ADME, organism-based; settings: in vivo
[12] = Tmax in Sprague-Dawley rat at 100 mg/kg, po measured upto 24 hrs by LC-MS/MS analysis; assay type: ADME, organism-based; settings: in vivo
[13] = Aqueous solubility of compound in buffer at pH 7.4 by HPLC analysis; assay type: physicochemical
[14] = Solubility of compound in FaSSIF at pH 6.5 measured upto 120 mins by HPLC analysis; assay type: physicochemical
[15] = Solubility of compound in FaSSIF at pH 5.8 measured upto 120 mins by HPLC analysis; assay type: physicochemical
[16] = Cmax in Beagle dog at 6 mg/kg, po measured upto 24 hrs using crystalline form of sample by LC-MS/MS analysis; assay type: ADME, organism-based, Canis lupus familiaris; parameters: dose 6 mg/kg, time < 24 hrs, route po; settings: in vivo
[17] = Cmax in Beagle dog at 5.4 mg/kg, po measured upto 24 hrs using PVP-ASD form of sample by LC-MS/MS analysis; assay type: ADME, organism-based, Canis lupus familiaris; parameters: dose 5.4 mg/kg, time < 24 hrs, route po; settings: in vivo
[18] = Toxicity in athymic nude mouse xenografted with rat Rat1 cells expressing myr-p110alpha assessed as body weight change at 20 mg/kg,po qd measured after 14 to 22 days; assay type: organism-based; settings: in vivo, time 14-22 day
[19] = Effect on plasma insulin level in athymic nude mouse xenografted with rat Rat1 cells expressing myr-p110alpha at 20 mg/kg, po qd measured for 1 to 10 hrs by glucometer analysis; assay type: toxicity, organism-based; settings: in vivo, time 1-10 hrs
[20] = Antitumor activity at patient derived human HBRX2524 xenografted in athymic nude mouse assessed as T/C ratio at 40 mg/kg, po qd measured upto 16 days; assay type: functional; settings: time <= 16 day
[21] = Cmax in athymic nude mouse xenografted with rat Rat1 cells expressing myr-p110alpha at 40 mg/kg, po measured after 8 days by LC-MS/MS analysis; assay type: ADME, organism-based; parameters: dose 40 mg/kg, time 8 day, route po; settings: in vivo
[22] = Clast in athymic nude mouse xenografted with rat Rat1 cells expressing myr-p110alpha at 20 mg/kg, po measured after 8 days by LC-MS/MS analysis; assay type: ADME, organism-based; settings: in vivo, time 8 day, read-out: Clast
[23] = AUC(0 to Tlast) in athymic nude mouse xenografted with rat Rat1 cells expressing myr-p110alpha at 10 mg/kg, po measured after 8 days by LC-MS/MS analysis; assay type: ADME, organism-based; parameters: time 8 day, dose 10 mg/kg, route po; settings: in vivo
[24] = Dose normalized AUC(0 to Tlast) in athymic nude mouse xenografted with rat Rat1 cells expressing myr-p110alpha at 10 mg/kg, po measured after 8 days by LC-MS/MS analysis; assay type: ADME, organism-based; settings: in vivo, 192 h, time 8 day
[25] = Dose normalized AUC(0 to Tlast) in athymic nude mouse xenografted with rat Rat1 cells expressing myr-p110alpha at 20 mg/kg, po measured after 8 days by LC-MS/MS analysis; assay type: ADME, organism-based; settings: in vivo, 192 h, time 8 day
cells = settings: Homo sapiens, U-87 MG, 16 h

C[C@H]1OC(=O)N(c2nc(-c3cnc(N)nc3C(F)(F)F)cc(N3CCOCC3)n2)[C@H]1CO
IC50 [1]: 2470 nM | Kp at 1 h [2]: 0.05 | Vdss [3]: 4.4 L/kg | AUC [4]: 1.77 µM·h | IC50 [5]: 8.3 nM | IC50 [6]: 230 nM | IC50 [7]: 30 nM | IC50 [8]: 263 nM | Vdss [9]: 2 L/kg | Vdss [10]: 1.5 L/kg | AUC/dose [11]: 913 nM·h | Tmax [12]: 24 h | solubility [13]: 26 µM (≈ 11.8 µg/mL) | solubility at 2 h [14]: 31 µM (≈ 14.1 µg/mL) | solubility at 2 h [15]: 51 µM (≈ 23.2 µg/mL) | Cmax [16]: 1240 nM | Cmax [17]: 10.7 µM | Activity [18]: Non-Toxic | Activity [19]: Toxic | T/C [20]: -0.2 | Cmax [21]: 8.95 µM | concentration at 192 h [22]: 110 nM | AUC(0-t) at 192 h [23]: 16 µM·h | AUC/dose [24]: 1.57 µM·h | AUC/dose [25]: 1.28 µM·h | IC50 (cells): 100 nM

From ChEMBL document CHEMBL5137017, “Identification of NVP-CLR457 as an Orally Bioavailable Non-CNS-Penetrant pan-Class IA Phosphoinositol-3-Kinase Inhibitor” (J Med Chem, 2022)
